Reference: patent US20260132132A1, “3A,4,5,6-TETRAHYDRO-1 H-PYRAZOLO[3,4-C]PYRIDIN-7(7AH)-ONE DERIVATIVES AS FACTOR XIIA INHIBITORS” (KALVISTA PHARMACEUTICALS LIMITED, priority 2022, published 2026)
pIC50: −log10 of the molar value.

Assays:
Type in all cases: biochemical
[1] = target: T1, Human Factor XIIa (hFXIIa) (Homo sapiens, UniProt P00748); test: Determination of Human Factor XIIa (hFXIIa) inhibition, fluorogenic substrate IC50 assay; conditions: fluorogenic substrate H-DPro-Phe-Arg-AFC at Km, 25° C., read-out: Human FXIIa IC50
T1 construct: purchased Enzyme Research Laboratories
T1 sequence (P00748 373-615 limits assumed): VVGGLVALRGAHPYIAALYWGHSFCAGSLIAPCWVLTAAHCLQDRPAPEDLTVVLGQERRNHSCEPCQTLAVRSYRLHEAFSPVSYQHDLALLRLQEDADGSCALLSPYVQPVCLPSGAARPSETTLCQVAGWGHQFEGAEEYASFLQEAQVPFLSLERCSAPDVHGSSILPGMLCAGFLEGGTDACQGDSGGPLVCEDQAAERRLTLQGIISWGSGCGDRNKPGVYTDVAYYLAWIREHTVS
T1 sequence (P00748 20-372 partner limits assumed): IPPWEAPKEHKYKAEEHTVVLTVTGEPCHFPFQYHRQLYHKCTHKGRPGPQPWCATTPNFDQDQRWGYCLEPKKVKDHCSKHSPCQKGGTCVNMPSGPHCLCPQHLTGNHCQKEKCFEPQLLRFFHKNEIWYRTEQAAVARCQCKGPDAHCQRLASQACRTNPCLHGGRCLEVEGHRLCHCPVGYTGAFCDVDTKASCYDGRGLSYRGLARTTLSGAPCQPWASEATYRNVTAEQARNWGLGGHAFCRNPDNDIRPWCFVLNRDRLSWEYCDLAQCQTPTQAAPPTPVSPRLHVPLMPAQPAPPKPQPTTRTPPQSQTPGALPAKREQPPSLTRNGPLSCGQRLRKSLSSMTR
Method: Determination of Human Factor XIIa (hFXIIa) inhibition
The Km for the cleavage of the substrate by hFXIIa was determined by standard transformation of the Michaelis-Menten equation, with subsequent inhibition assays performed at substrate Km concentration.

[2] = target: FXa (Homo sapiens, UniProt P00742); test: Related protease inhibition: FXa, fluorogenic substrate; conditions: fluorogenic substrate at Km, 25° C., H1-H3 = % activity at 40 μM; for activity at 40 µM: read-out: IC50 (human FXa) nM
Method: (§1) Human serine protease enzyme Plasma Kallikrein, KLK1, FXa, Plasmin, Thrombin and Trypsin were assayed for enzymatic activity using an appropriate fluorogenic substrate at Km concentration, FXIa at fixed substrate concentration of 100 μM and various concentrations of the test compound.

[3] = target: Thrombin (Homo sapiens, UniProt P00734); test: Related protease inhibition: Thrombin, fluorogenic substrate; conditions: fluorogenic substrate at Km, 25° C., H1-H3 = % activity at 40 μM; for activity at 40 µM: read-out: IC50 (human thrombin) nM
Method: as §1

FXa, sequence (P00742 235-488 limits assumed): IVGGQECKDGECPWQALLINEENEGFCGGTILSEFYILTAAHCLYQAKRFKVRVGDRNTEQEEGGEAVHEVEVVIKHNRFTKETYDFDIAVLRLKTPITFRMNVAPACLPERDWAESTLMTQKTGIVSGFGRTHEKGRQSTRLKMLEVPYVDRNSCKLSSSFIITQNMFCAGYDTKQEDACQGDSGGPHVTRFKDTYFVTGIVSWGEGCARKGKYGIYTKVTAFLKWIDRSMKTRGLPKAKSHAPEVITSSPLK
FXa, sequence (P00742 41-179 partner limits assumed): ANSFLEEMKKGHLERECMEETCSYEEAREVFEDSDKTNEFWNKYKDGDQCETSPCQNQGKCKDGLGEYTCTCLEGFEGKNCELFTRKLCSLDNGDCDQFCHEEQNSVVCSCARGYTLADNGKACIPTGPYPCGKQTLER

Compound	pIC50 [1]	activity at 40 µM [2] [%]	activity at 40 µM [3] [%]	pIC50 [2]	pIC50 [3]
CN1CCc2ccc(N3CCc4c(C(=O)NCC5(O)CC5)nn(-c5cccc(Cl)c5)c4C3=O)cc2C1=O [Example 1421, 1-(3-chlorophenyl)-N-((1-hydroxycyclopropyl)methyl)-6-(2-methyl-1-oxo-1,2,3,4-tetrahydroisoquinolin-7-yl)-7-oxo-4,5,6,7-tetrahydro-1H-pyrazolo[3,4-c]pyridine-3-carboxamide]	6.00 to 6.52	> 80	> 80		
CCNC(=O)c1nn(-c2cccc(Cl)c2)c2c1CCN(c1cccc(N3CCN(C)C(=O)C3)c1)C2=O [Example 1432, 1-(3-chlorophenyl)-N-ethyl-6-(3-(4-methyl-3-oxopiperazin-1-yl)phenyl)-7-oxo-4,5,6,7-tetrahydro-1H-pyrazolo[3,4-c]pyridine-3-carboxamide]	5.52 to 6.00	20 to 80	< 20		
CN1CCOc2ccc(N3CCc4c(C(=O)N[C@H](CO)C5CC5)nn(-c5cccc(Cl)c5F)c4C3=O)cc2C1=O [Example 2053, (S)-1-(3-chloro-2-fluorophenyl)-N-(1-cyclopropyl-2-hydroxyethyl)-6-(4-methyl-5-oxo-2,3,4,5-tetrahydrobenzo[f][1,4]oxazepin-7-yl)-7-oxo-4,5,6,7-tetrahydro-1H-pyrazolo[3,4-c]pyridine-3-carboxamide]	7.00 to 8.00	20 to 80	> 80		
CCNC(=O)c1nn(-c2cccc(Cl)c2)c2c1CCN(c1cc3c(cn1)OCCN(C)C3=O)C2=O [Example 1418, 1-(3-chlorophenyl)-N-ethyl-6-(4-methyl-5-oxo-2,3,4,5-tetrahydropyrido[4,3-f][1,4]oxazepin-7-yl)-7-oxo-4,5,6,7-tetrahydro-1H-pyrazolo[3,4-c]pyridine-3-carboxamide]	6.00 to 6.52	20 to 80	> 80		
CCNC(=O)c1nn(-c2cccc(Cl)c2)c2c1CCN(c1cc3c(cc1F)OCCN(C)C3=O)C2=O [Example 1435, 1-(3-chlorophenyl)-N-ethyl-6-(8-fluoro-4-methyl-5-oxo-2,3,4,5-tetrahydrobenzo[f][1,4]oxazepin-7-yl)-7-oxo-4,5,6,7-tetrahydro-1H-pyrazolo[3,4-c]pyridine-3-carboxamide]	6.52 to 7.00	> 80	> 80		
CCNC(=O)c1nn(-c2cccc(OC)n2)c2c1CCN(c1ccc3c(c1)C(=O)N(C)CC3)C2=O [Example 2037, N-ethyl-1-(6-methoxypyridin-2-yl)-6-(2-methyl-1-oxo-1,2,3,4-tetrahydroisoquinolin-7-yl)-7-oxo-4,5,6,7-tetrahydro-1H-pyrazolo[3,4-c]pyridine-3-carboxamide]	4.40 to 5.00	> 80	> 80		
CCNC(=O)c1nn(-c2cccc(Cl)c2)c2c1CCN(c1ccc(OC)c(CN3CCCCC3)c1)C2=O [Example 1419, 1-(3-chlorophenyl)-N-ethyl-6-(4-methoxy-3-(piperidin-1-ylmethyl)phenyl)-7-oxo-4,5,6,7-tetrahydro-1H-pyrazolo[3,4-c]pyridine-3-carboxamide]	5.52 to 6.00	20 to 80	20 to 80		
COCc1nn(-c2cccc(C#N)c2C)c2c1CCN(c1ccc3c(c1)C(=O)N(C)CC3)C2=O [Example 2038, 3-(3-(Methoxymethyl)-6-(2-methyl-1-oxo-1,2,3,4-tetrahydroisoquinolin-7-yl)-7-oxo-4,5,6,7-tetrahydro-1H-pyrazolo[3,4-c]pyridin-1-yl)-2-methylbenzonitrile]	4.40 to 5.00	> 80	> 80		

The remaining lines, values ahead:

pIC50 [1]	activity at 40 µM [2] [%]	activity at 40 µM [3] [%]	pIC50 [2]	pIC50 [3]	Compound
7.00 to 8.00	20 to 80	> 80			CN1CCc2ccc(N3CCc4c(C(=O)NCC(=O)O)nn(-c5cc(Cl)cc(CN)c5)c4C3=O)cc2C1=O [Example 2056, (1-(3-(aminomethyl)-5-chlorophenyl)-6-(2-methyl-1-oxo-1,2,3,4-tetrahydroisoquinolin-7-yl)-7-oxo-4,5,6,7-tetrahydro-1H-pyrazolo[3,4-c]pyridine-3-carbonyl)glycine]
6.00 to 6.52	20 to 80	20 to 80			CN1CCc2ccc(N3CCc4c(C(=O)NCCCO)nn(-c5cccc(Cl)c5)c4C3=O)cc2C1=O [Example 1417, 1-(3-chlorophenyl)-N-(3-hydroxypropyl)-6-(2-methyl-1-oxo-1,2,3,4-tetrahydroisoquinolin-7-yl)-7-oxo-4,5,6,7-tetrahydro-1H-pyrazolo[3,4-c]pyridine-3-carboxamide]
6.00 to 6.52	20 to 80	> 80			CCNC(=O)c1nn(-c2cc(C)cc(Cl)c2)c2c1CCN(c1ccc3c(c1)C(=O)N(C)CC3)C2=O [Example 2051, 1-(3-chloro-5-methylphenyl)-N-ethyl-6-(2-methyl-1-oxo-1,2,3,4-tetrahydroisoquinolin-7-yl)-7-oxo-4,5,6,7-tetrahydro-1H-pyrazolo[3,4-c]pyridine-3-carboxamide]
5.52 to 6.00	20 to 80	20 to 80			CCNC(=O)c1nn(-c2ccc(Cl)c(C)c2)c2c1CCN(c1ccc3c(c1)C(=O)N(C)CC3)C2=O [Example 2057, 1-(4-chloro-3-methylphenyl)-N-ethyl-6-(2-methyl-1-oxo-1,2,3,4-tetrahydroisoquinolin-7-yl)-7-oxo-4,5,6,7-tetrahydro-1H-pyrazolo[3,4-c]pyridine-3-carboxamide]
4.40 to 5.00	> 80	> 80			CCNC(=O)c1nn(-c2cccc(Cl)c2)c2c1CCN(c1cccc(N3CC4(COC4)CC3=O)c1)C2=O [Example 1428, 1-(3-chlorophenyl)-N-ethyl-7-oxo-6-(3-(7-oxo-2-oxa-6-azaspiro[3.4]octan-6-yl)phenyl)-4,5,6,7-tetrahydro-1H-pyrazolo[3,4-c]pyridine-3-carboxamide]
5.52 to 6.00	20 to 80	20 to 80			CCNC(=O)c1nn(-c2cccc(Cl)c2)c2c1CCN(c1cccc(N3CCN(C)CC3)c1)C2=O [Example 1423, 1-(3-Chlorophenyl)-N-ethyl-6-(3-(4-methylpiperazin-1-yl)phenyl)-7-oxo-4,5,6,7-tetrahydro-1H-pyrazolo[3,4-c]pyridine-3-carboxamide]
5.00 to 5.52	> 80	> 80			CCNC(=O)c1nn(-c2cccc(Cl)c2)c2c1CCN(c1cccc(N3CCN(C)CC3=O)c1)C2=O [Example 1420, 1-(3-chlorophenyl)-N-ethyl-6-(3-(4-methyl-2-oxopiperazin-1-yl)phenyl)-7-oxo-4,5,6,7-tetrahydro-1H-pyrazolo[3,4-c]pyridine-3-carboxamide]
7.00 to 8.00	> 80	> 80			CN1CCOc2ccc(N3CCc4c(C(=O)NCC5CC5)nn(-c5cccc(Cl)c5F)c4C3=O)cc2C1=O [Example 2046, 1-(3-chloro-2-fluorophenyl)-N-(cyclopropylmethyl)-6-(4-methyl-5-oxo-2,3,4,5-tetrahydrobenzo[f][1,4]oxazepin-7-yl)-7-oxo-4,5,6,7-tetrahydro-1H-pyrazolo[3,4-c]pyridine-3-carboxamide]
5.00 to 5.52	> 80	> 80			CCNC(=O)c1nn(-c2cccc(Cl)c2)c2c1CCN(c1cccc(N3CCN(C(C)C)C3=O)c1)C2=O [Example 1409, 1-(3-chlorophenyl)-N-ethyl-6-(3-(3-isopropyl-2-oxoimidazolidin-1-yl)phenyl)-7-oxo-4,5,6,7-tetrahydro-1H-pyrazolo[3,4-c]pyridine-3-carboxamide]
5.00 to 5.52			< 4.40	< 4.40	CCNC(=O)c1nn(-c2cc(Cl)cc(COC)c2)c2c1CCN(c1ccc3c(c1)C(=O)N(C)CC3)C2=O [Example 2058, 1-(3-chloro-5-(methoxymethyl)phenyl)-N-ethyl-6-(2-methyl-1-oxo-1,2,3,4-tetrahydroisoquinolin-7-yl)-7-oxo-4,5,6,7-tetrahydro-1H-pyrazolo[3,4-c]pyridine-3-carboxamide]
4.40 to 5.00	> 80	20 to 80			CCNC(=O)c1nn(-c2cccc(C#N)c2C)c2c1CCN(c1ccc3c(c1)C(=O)N(C)CC3)C2=O [Example 2042, 1-(3-cyano-2-methylphenyl)-N-ethyl-6-(2-methyl-1-oxo-1,2,3,4-tetrahydroisoquinolin-7-yl)-7-oxo-4,5,6,7-tetrahydro-1H-pyrazolo[3,4-c]pyridine-3-carboxamide]
